Our source for the IC50 and viability, T/C values is PubChem BioAssay AID2060612 (Molecular Pharmacology Branch, DTP, NCI, 2025).

The experiment concerns 565232-114-T-J1-PDC complex spheroid viability. As to the kind of experiment: Anticancer human tumor 565232-114-T-J1-PDC patient-derived bladder carcinoma cell line growth inhibition [CLK]. The note with it: for viability, T/C: stronger effect = lower value. The source says:
A high-throughput screen of multi-cell type tumor spheroids was designed to identify active combinations of […] and targeted small molecules. Complex spheroids include a stromal component modeled by human endothelial cells (HUVEC) and fibroblasts modeled by human mesenchymal stem cells (MSCs). The concentration ranges selected for each drug and investigational agent were based upon clinically achievable concentrations if the clinical Cmax of the agent was known.
Compounds. The drugs and investigational agents: cirtuvivint (SM08502; NSC835563), CC-671 (NSC850746), vemurafenib (NSC761431), tapotoclax (NSC804041), sotorasib (NSC818433), adagrasib (NSC831453), MRTX-1133 (NSC836407), BAY2416964 (NSC825713), copanlisib (NSC816437), inavolisib (NSC800729), abemaciclib (NSC768073), osimertinib (NSC779217), entinostat (NSC756642), eltanexor (KPT-8602, NSC794443), venetoclax (NSC766270), ceralasertib (NSC777638), bortezomib (NSC756655), olaparib (NSC753686), talazoparib (NSC767125), alisertib (NSC759677), peposertib (NSC802822), gemcitabine (NSC613327), 5-fluorouracil (NSC19893), SN-38 (NSC673596), oxaliplatin (NSC266046), paclitaxel (NSC125973), and doxorubicin (NSC123127), were obtained from the National Cancer Institute (NCI) Developmental Therapeutics Program Chemical Repository. The FDA-approved anticancer drug set is available from the Developmental Therapeutics Program at https://dtp.cancer.gov/organization/dscb/obtaining/available plates.htm. […] The stock solutions were prepared in dimethyl sulfoxide (DMSO, Sigma-Aldrich, St. Louis, MO, cat. D2650), except for the platinum complexes which were prepared in saline (Quality Biological, Gaithersburg, MD, cat. 114-055-101), at 800-fold the tested concentration and stored at -70 degrees C prior to their use. All drugs and investigational agents were tested over a range starting from a high concentration at or near the clinical Cmax and decreasing in half-log increments. If the clinical Cmax for an agent had not been determined, the highest concentration tested was 10 microM.
Cell Culture. All cells were maintained in an incubator at 37 degrees C and 5% CO2 with 95% humidity. The PDC lines were cultured according to standard operating procedures established by the NCI PDMR. Briefly, all PDCs were thawed and cultured in Matrigel-coated flasks prepared with a working solution of 1X Ham's F-12 nutrient mix, without supplementation (Invitrogen, Waltham, MA, cat. 11765054), 100 U/mL penicillin-streptomycin (Invitrogen, cat. 15140122), and 2.5% Matrigel (Corning Inc., Corning, NY, cat. 354248) for the first three passages. The 947758-054-R-J2-PDC line was cultured in 6B/Colon 1A media, which includes advanced DMEM/F-12 (Thermo Fisher Scientific, cat. 12634028), 10 mM HEPES (Thermo Fisher Scientific, cat. 15630080), 1X GlutaMAX supplement (Thermo Fisher Scientific, cat. 35050061), 0.1 mg/mL primocin (InvivoGen, cat. ant-pm-2), 10% defined fetal bovine serum, heat inactivated (HyClone Laboratories Inc., cat. SH30070.03HI), 1.25 mM N-Acetyl-L-cysteine (Sigma-Aldrich, cat. A9165), 10 mM nicotinamide (Sigma-Aldrich, cat. N0636), 1X B-27 supplement (Thermo Fisher Scientific, cat. 17504044), 1X N-2 supplement (Thermo Fisher Scientific, cat. 17502048), and 10 microM Y-27632 dihydrochloride (Tocris Bioscience, cat. 1254). The 876862-298-R-J1-PDC was cultured in 6E media, which includes all 6B/Colon 1A media components plus 50% L-WRN conditioned media (ATCC, cat. CRL-3276), 50 ng/mL recombinant human EGF recombinant protein (hEGF; Thermo Fisher Scientific, cat. PHG0311), 10 ng/mL recombinant human fibroblast growth factor 10 (hGFG-10; PeproTech, cat. 100-26), 1 ng/mL recombinant human fibroblast growth factor 2 (hFGF-2; PeproTech, cat. 100-18B), and 1 µM prostaglandin E2 (PGE2; Tocris, cat. 2296). The 227483-062-R1-J1-PDC line was cultured in Panc media, containing all 6E components except hFGF-2, with the addition of 500 nM SB-431542 (Selleckchem, cat. S1067) and 10 nM gastrin (Tocris, cat. 3006). […]

Where [1] appears, read: curve of first compound, second compound 0.0316 µM.
Setting [2] is: curve of first compound, second compound 0.1 µM.
The mark [3] stands for this setting: curve of first compound, second compound 0.316 µM.
[4] abbreviates: curve of first compound, second compound 1 µM.
The mark [5] stands for this setting: curve of first compound, second compound 3.16 µM.
[6] abbreviates: curve of first compound, second compound 10 µM.
Where [7] appears, read: second compound 0.0316 µM, first compound 0.0316 µM.
The mark [8] stands for this setting: second compound 0.0316 µM, first compound 0.1 µM.
Setting [9] is: second compound 0.0316 µM, first compound 0.316 µM.
Setting [10] is: second compound 0.0316 µM, first compound 1 µM.
Where [11] appears, read: second compound 0.0316 µM, first compound 3.16 µM.
Setting [12] is: second compound 0.0316 µM, first compound 10 µM.
Where [13] appears, read: second compound 0.1 µM, first compound 0.0316 µM.
Where [14] appears, read: second compound 0.1 µM, first compound 0.1 µM.
Setting [15] is: second compound 0.1 µM, first compound 0.316 µM.
The mark [16] stands for this setting: second compound 0.1 µM, first compound 1 µM.
[17] abbreviates: second compound 0.1 µM, first compound 3.16 µM.
[18] abbreviates: second compound 0.1 µM, first compound 10 µM.
Where [19] appears, read: second compound 0.316 µM, first compound 0.0316 µM.
Setting [20] is: second compound 0.316 µM, first compound 0.1 µM.
Where [21] appears, read: second compound 0.316 µM, first compound 0.316 µM.
Where [22] appears, read: second compound 0.316 µM, first compound 1 µM.
[23] abbreviates: second compound 0.316 µM, first compound 3.16 µM.
[24] abbreviates: second compound 0.316 µM, first compound 10 µM.
Where [25] appears, read: second compound 1 µM, first compound 0.0316 µM.
The mark [26] stands for this setting: second compound 1 µM, first compound 0.1 µM.
Where [27] appears, read: second compound 1 µM, first compound 0.316 µM.
[28] abbreviates: second compound 1 µM, first compound 1 µM.
Where [29] appears, read: second compound 1 µM, first compound 3.16 µM.
Where [30] appears, read: second compound 1 µM, first compound 10 µM.
[31] abbreviates: second compound 3.16 µM, first compound 0.0316 µM.
The mark [32] stands for this setting: second compound 3.16 µM, first compound 0.1 µM.
Where [33] appears, read: second compound 3.16 µM, first compound 0.316 µM.
Where [34] appears, read: second compound 3.16 µM, first compound 1 µM.
[35] abbreviates: second compound 3.16 µM, first compound 3.16 µM.
Setting [36] is: second compound 3.16 µM, first compound 10 µM.
Where [37] appears, read: second compound 10 µM, first compound 0.0316 µM.
The mark [38] stands for this setting: second compound 10 µM, first compound 0.1 µM.
Setting [39] is: second compound 10 µM, first compound 0.316 µM.
[40] abbreviates: second compound 10 µM, first compound 1 µM.
The mark [41] stands for this setting: second compound 10 µM, first compound 3.16 µM.
The mark [42] stands for this setting: second compound 10 µM, first compound 10 µM.

“And” between values parts separate entries of the source, which are not always exact repeats. Equal entries are not always repeated.
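Further: spheroids exposed to compounds for 7 days before readout.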
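Wherever viability, T/C is given: 100% = DMSO vehicle wells with luminescence normalized to vehicle control.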

With `COc1ccc([C@@H](O)c2cc(-c3ncnc4cc(N5CCOCC5)ccc34)c(F)cc2Cl)nn1` + CN1CCN(c2cc(C(=O)Nc3cc4cc(-c5cnn(C)c5)ccc4cn3)ccn2)CC1, the IC50 under setting [1] is more than 10000 nM; the IC50 under setting [2] is more than 10000 nM; the IC50 under setting [3] is less than 31.6 nM; the IC50 under setting [4] was less than 31.6 nM; the IC50 under setting [5] is less than 31.6 nM; the IC50 under setting [6] was less than 31.6 nM. The viability, T/C reads like this: under setting [7], 87.3%; under setting [8], 95.6%; under setting [9], 88.1%; under setting [10], 85.4%; under setting [11], 96.9%; under setting [12], 103%. The viability, T/C is, setting by setting: under setting [13], 88.1%; under setting [14], 91.6%; under setting [15], 86.3%; under setting [16], 113%; under setting [17], 105%; under setting [18], 97.9%. Further, the viability, T/C reads like this: under setting [19], 12.2%; under setting [20], 18.2%; under setting [21], 17.1%; under setting [22], 11.9%; under setting [23], 16.2%; under setting [24], 13.2%. The viability, T/C is 0.83% under setting [25]; 0.2% under setting [26]; 1.54% under setting [27]; 0.18% under setting [28]; 0.2% under setting [29]; 1.34% under setting [30]. Moreover, the viability, T/C runs as follows: under setting [31], 0.14%; under setting [32], 0.2%; under setting [33], 0.18%; under setting [34], 0.18%; under setting [35], 1.47%; under setting [36], 1.21%. The viability, T/C runs as follows: under setting [37], 0.1%; under setting [38], 0.16%; under setting [39], 0.24%; under setting [40], 0.19%; under setting [41], 0.2%; under setting [42], 1.44%.

`C=CC(=O)N1CCN(c2nc(=O)n(-c3c(C)ccnc3C(C)C)c3nc(-c4c(O)cccc4F)c(F)cc23)C(C)C1` (stereo not given): the viability, T/C reads like this: (compound 0.0316 µM) 122%; (compound 0.1 µM) 82.7%; (compound 0.316 µM) 91.2%; (compound 1 µM) 97%; (compound 3.16 µM) 110%; (compound 10 µM) 111%. The IC50 (curve of compound) is more than 10000 nM.

For `CC(=O)O[C@H]1C(=O)[C@@]2(C)[C@H]([C@H](OC(=O)c3ccccc3)[C@]3(O)C[C@H](OC(=O)[C@H](O)[C@@H](NC(=O)c4ccccc4)c4ccccc4)C(C)=C1C3(C)C)[C@]1(OC(C)=O)CO[C@@H]1C[C@@H]2O` + CNC(=O)c1ccc(Nc2nc(OC3CCCC3)c3c(-c4ccc5nc(C)oc5c4)c[nH]c3n2)c(OC)c1, the IC50 reads like this: under setting [1], less than 31.6 nM; under setting [2], less than 31.6 nM; under setting [3], less than 31.6 nM; under setting [4], less than 31.6 nM; under setting [5], less than 31.6 nM; under setting [6], less than 31.6 nM. In addition, the viability, T/C was 24.3% under setting [7]; 9.42% under setting [8]; 9.43% under setting [9]; 10% under setting [10]; 13.3% under setting [11]; 16.3% under setting [12]. Further, the viability, T/C is, setting by setting: under setting [13], 37.8%; under setting [14], 32.8%; under setting [15], 35.9%; under setting [16], 29.6%; under setting [17], 43.8%; under setting [18], 42.9%. For the same compound, the viability, T/C is 31.6% under setting [19]; 38% under setting [20]; 38.3% under setting [21]; 46.9% under setting [22]; 51% under setting [23]; 46.5% under setting [24]. In addition, the viability, T/C runs as follows: under setting [25], 22.9%; under setting [26], 30.6%; under setting [27], 30.7%; under setting [28], 41.2%; under setting [29], 41.4%; under setting [30], 36.1%. The viability, T/C by setting is: under setting [31], 24.4%; under setting [32], 25.5%; under setting [33], 25.1%; under setting [34], 29.9%; under setting [35], 26.6%; under setting [36], 29%. Moreover, the viability, T/C under setting [37] was 20.4%; the viability, T/C under setting [38] is 22.3%; the viability, T/C under setting [39] was 29.6%; the viability, T/C under setting [40] is 28.1%; the viability, T/C under setting [41] is 30.5%; the viability, T/C under setting [42] is 27.7%.

With `COc1ccc([C@@H](O)c2cc(-c3ncnc4cc(N5CCOCC5)ccc34)c(F)cc2Cl)nn1`, the viability, T/C was 106% and 119% (compound 0.0316 µM); 88.3% and 115% (compound 0.1 µM); 98.2% and 98.9% (compound 0.316 µM); 102% and 77.9% (compound 1 µM); 77.2% and 117% (compound 3.16 µM); 99.1% and 81.8% (compound 10 µM). For the same compound, the IC50 (curve of compound) was more than 10000 nM.

For the compound `CC1COCCN1c1cc(C2(S(C)(=N)=O)CC2)nc(-c2ccnc3[nH]ccc23)n1` (stereo not given), the viability, T/C runs as follows: (compound 0.0316 µM) 83.5% and 105%; (compound 0.1 µM) 88.9% and 90.1%; (compound 0.316 µM) 101% and 94.8%; (compound 1 µM) 88% and 99.1%; (compound 3.16 µM) 76.2% and 99.8%; (compound 10 µM) 63.5% and 25.8%. Further, the IC50 (curve of compound) is > 10000 nM and 6780 nM.
